Assay results: US20090311217A1, “3-SUBSTITUTED-1H-INDOLE COMPOUNDS, THEIR USE AS MTOR KINASE AND PI3 KINASE INHIBITORS, AND THEIR SYNTHESES” (priority 2008, published 2009)
One block for each compound: values may come before it.

Key:
Assay type in all cases: biochemical
[1] = molecular target: T1, human TOR (Homo sapiens, UniProt P42345); assay: mTOR enzyme assay (DELFIA, His6-S6K substrate); conditions: read-out: mTOR Kinase Avg. IC50
T1 construct: FLAG

[2] = molecular target: PI3K-alpha (Homo sapiens, UniProt P42336); assay: PI3K-alpha fluorescence polarization assay; conditions: read-out: PI3Kα Avg. IC50
[3] = molecular target: PI3K-gamma (Homo sapiens, UniProt P48736); assay: PI3K-gamma fluorescence polarization assay; conditions: PI3Kγ Avg. IC50
In short: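 Enzyme 5 ng; substrate diC8-PI(4,5)P2 2.5 μM; ATP 25 μM; 5 mM HEPES pH 7, 2.5 mM MgCl2; DMSO ≤2%; 1 h, 25° C. Quench 10 mM EDTA. Detect with GRP1 PH domain 100 nM + TMR-IP4 probe 5 nM by polarization.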

PI3K-gamma, sequence (P48736 whole entry, species assumed, the tested form may be a part): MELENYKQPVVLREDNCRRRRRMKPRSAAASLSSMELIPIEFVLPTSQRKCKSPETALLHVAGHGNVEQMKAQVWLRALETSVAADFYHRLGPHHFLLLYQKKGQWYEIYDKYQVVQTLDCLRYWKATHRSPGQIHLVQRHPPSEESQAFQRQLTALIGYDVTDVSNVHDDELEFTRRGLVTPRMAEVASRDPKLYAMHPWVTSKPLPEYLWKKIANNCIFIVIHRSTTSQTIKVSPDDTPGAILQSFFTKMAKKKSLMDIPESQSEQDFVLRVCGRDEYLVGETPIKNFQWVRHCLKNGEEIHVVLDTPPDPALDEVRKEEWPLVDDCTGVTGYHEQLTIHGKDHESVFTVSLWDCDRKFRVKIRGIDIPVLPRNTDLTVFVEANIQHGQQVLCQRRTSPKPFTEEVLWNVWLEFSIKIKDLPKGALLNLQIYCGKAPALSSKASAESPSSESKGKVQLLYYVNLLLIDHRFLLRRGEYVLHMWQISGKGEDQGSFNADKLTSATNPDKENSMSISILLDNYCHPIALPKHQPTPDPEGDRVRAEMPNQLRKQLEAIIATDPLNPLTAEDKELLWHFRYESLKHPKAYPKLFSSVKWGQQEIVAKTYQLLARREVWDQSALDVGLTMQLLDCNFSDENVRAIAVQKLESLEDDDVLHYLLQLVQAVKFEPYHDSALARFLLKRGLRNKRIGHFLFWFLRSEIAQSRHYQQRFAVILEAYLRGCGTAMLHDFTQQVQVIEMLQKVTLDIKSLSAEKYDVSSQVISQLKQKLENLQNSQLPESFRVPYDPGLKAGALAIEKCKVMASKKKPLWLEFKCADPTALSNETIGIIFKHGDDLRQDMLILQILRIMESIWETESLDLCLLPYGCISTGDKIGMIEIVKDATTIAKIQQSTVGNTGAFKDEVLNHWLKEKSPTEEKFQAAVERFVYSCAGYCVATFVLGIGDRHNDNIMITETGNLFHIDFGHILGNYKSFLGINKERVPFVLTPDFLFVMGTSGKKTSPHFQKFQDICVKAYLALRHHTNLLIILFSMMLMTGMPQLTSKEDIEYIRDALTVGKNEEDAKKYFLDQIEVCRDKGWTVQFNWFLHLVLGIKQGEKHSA
PI3K-alpha, sequence (P42336 whole entry, species assumed): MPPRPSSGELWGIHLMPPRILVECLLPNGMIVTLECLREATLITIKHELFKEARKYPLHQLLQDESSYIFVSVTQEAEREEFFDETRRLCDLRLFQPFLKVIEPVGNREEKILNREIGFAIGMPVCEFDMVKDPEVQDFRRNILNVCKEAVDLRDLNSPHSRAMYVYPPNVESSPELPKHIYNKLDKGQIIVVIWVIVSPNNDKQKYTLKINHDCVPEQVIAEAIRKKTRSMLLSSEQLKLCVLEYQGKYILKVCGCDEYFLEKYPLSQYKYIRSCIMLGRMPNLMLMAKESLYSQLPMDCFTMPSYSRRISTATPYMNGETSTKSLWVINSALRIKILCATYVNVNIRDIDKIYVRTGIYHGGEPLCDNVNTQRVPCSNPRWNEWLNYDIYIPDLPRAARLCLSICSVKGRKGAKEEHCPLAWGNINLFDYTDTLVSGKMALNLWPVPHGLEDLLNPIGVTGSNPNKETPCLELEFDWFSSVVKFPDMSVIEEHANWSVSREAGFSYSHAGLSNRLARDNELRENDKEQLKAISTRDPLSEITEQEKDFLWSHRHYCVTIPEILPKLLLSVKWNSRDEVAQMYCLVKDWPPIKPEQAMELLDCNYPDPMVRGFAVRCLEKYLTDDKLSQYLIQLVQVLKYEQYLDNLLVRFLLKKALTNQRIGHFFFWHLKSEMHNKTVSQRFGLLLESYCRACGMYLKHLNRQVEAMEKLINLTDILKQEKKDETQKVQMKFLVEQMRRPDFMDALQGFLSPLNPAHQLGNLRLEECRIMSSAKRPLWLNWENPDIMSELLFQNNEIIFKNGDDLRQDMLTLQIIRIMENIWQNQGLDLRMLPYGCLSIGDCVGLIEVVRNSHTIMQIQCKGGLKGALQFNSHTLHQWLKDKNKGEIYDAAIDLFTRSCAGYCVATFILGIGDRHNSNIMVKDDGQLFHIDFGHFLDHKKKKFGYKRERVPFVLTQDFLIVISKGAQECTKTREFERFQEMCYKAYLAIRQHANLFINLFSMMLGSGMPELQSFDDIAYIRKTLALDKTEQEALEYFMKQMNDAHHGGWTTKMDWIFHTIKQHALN
PI3K-alpha, sequence (P27986 whole entry partner, species assumed): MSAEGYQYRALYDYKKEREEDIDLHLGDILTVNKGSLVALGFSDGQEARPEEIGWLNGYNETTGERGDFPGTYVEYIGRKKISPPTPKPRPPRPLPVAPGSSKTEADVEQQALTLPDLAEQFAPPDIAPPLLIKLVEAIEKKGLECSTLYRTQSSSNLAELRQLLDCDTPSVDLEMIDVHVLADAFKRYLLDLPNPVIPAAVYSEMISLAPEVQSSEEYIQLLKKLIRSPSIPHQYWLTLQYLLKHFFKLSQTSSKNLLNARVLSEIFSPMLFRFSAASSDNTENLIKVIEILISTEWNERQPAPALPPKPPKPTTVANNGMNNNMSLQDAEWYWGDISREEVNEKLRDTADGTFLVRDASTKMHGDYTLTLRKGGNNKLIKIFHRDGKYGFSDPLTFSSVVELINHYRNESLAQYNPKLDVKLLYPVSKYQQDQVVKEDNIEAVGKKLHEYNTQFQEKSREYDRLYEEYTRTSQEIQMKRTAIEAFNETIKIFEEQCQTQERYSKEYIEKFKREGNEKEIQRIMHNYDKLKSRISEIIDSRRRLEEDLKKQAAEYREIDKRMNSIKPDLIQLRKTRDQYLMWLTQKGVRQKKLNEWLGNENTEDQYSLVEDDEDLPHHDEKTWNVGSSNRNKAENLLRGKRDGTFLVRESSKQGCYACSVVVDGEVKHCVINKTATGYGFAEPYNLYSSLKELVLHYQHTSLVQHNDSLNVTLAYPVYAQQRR

SMILES: Cn1c(-c2ccccc2)c(C=C2Oc3ccccc3C2=O)c2ccccc21 [Example 3, 2-[(1-methyl-2-phenyl-1H-indol-3-yl)methylene]-1-benzofuran-3(2H)-one]
IC50 [1]: > 20000 nM
IC50 [2]: > 10000 nM

SMILES: Cn1cc(/C=C2\Oc3ccc(N)cc3C2=O)c2c(-c3ccccc3)cccc21 [Compound 534, (2Z)-5-amino-2-[(1-methyl-4-phenyl-1H-indol-3-yl)methylene]-1-benzofuran-3(2H)-one]
IC50 [3]: 476 nM
IC50 [2]: 5880 nM

SMILES: CNC(=O)Nc1ccc2c(c1)C(=O)/C(=C/c1c(C)n(CCCn3ccnc3)c3ccc(OC)cc13)O2 [Compound 598, 1-[(2Z)-2-({1-[3-(1H-imidazol-1-yl)propyl]-5-methoxy-2-methyl-1H-indol-3-yl}methylidene)-3-oxo-2,3-dihydro-1-benzofuran-5-yl]-3-methylurea]
IC50 [3]: 417 nM
IC50 [2]: 30.8 nM

SMILES: CCn1c(C)c(/C=C2\Oc3ccc(NC(=O)Nc4ccc(N(C)C)cc4)cc3C2=O)c2cc(OC)ccc21 [Compound 681, 1-[4-(dimethylamino)phenyl]-3-{(2Z)-2-[(1-ethyl-5-methoxy-2-methyl-1H-indol-3-yl)methylidene]-3-oxo-2,3-dihydro-1-benzofuran-5-yl}urea]
IC50 [3]: 69.5 nM
IC50 [2]: 11.5 nM

SMILES: CCc1cc(O)cc2c1C(=O)C(=Cc1c[nH]c3ccc(OC)cc13)O2 [Compound 506, 4-ethyl-6-hydroxy-2-[(5-methoxy-1H-indol-3-yl)methylene]-1-benzofuran-3(2H)-one]
IC50 [3]: 1510 nM
IC50 [2]: 133 nM

SMILES: COc1ccc2c(c1)c(/C=C1\Oc3ccc(NC(=O)NCCN(C)C)cc3C1=O)cn2CCN1CCN(C)CC1 [Compound 574, 1-[2-(dimethylamino)ethyl]-3-[(2Z)-2-({5-methoxy-1-[2-(4-methylpiperazin-1-yl)ethyl]-1H-indol-3-yl}methylene)-3-oxo-2,3-dihydro-1-benzofuran-5-yl]urea]
IC50 [3]: 2990 nM
IC50 [2]: 97.5 nM

SMILES: COc1ccc2c(c1)c(/C=C1\Oc3cc(O)cc(C)c3C1=O)cn2C [Compound 507, (2Z)-6-hydroxy-2-[(5-methoxy-1-methyl-1H-indol-3-yl)methylene]-4-methyl-1-benzofuran-3(2H)-one]
IC50 [3]: 1540 nM
IC50 [2]: 78.5 nM

SMILES: Cn1cc(C=C2Oc3cc(O)cc(O)c3C2=O)c2c(-c3ccccc3)cccc21 (single isomer, unassigned) [Compound 544, (2E)-4,6-dihydroxy-2-[(1-methyl-4-phenyl-1H-indol-3-yl)methylene]-1-benzofuran-3(2H)-one-(2Z)-4,6-dihydroxy-2-[(1-methyl-4-phenyl-1H-indol-3-yl)methylene]-1-benzofuran-3(2H)-one (1:1)]
IC50 [3]: 2150 nM
IC50 [2]: 266 nM

SMILES: CNC(=O)c1cc(O)cc2c1C(=O)/C(=C/c1c[nH]c3ccc(OC)cc13)O2 [Compound 513, (2Z)-6-hydroxy-2-[(5-methoxy-1H-indol-3-yl)methylene]-N-methyl-3-oxo-2,3-dihydro-1-benzofuran-4-carboxamide]
IC50 [3]: > 10000 nM
IC50 [2]: 1540 nM

SMILES: CNCCNC(=O)Nc1ccc2c(c1)C(=O)/C(=C/c1c(C3CCCCC3)n(CCN3CCN(C)CC3)c3ccc(OC)cc13)O2 [Compound 584, 1-[(2Z)-2-({2-cyclohexyl-5-methoxy-1-[2-(4-methylpiperazin-1-yl)ethyl]-1H-indol-3-yl}methylene)-3-oxo-2,3-dihydro-1-benzofuran-5-yl]-3-[2-(methylamino)ethyl]urea]
IC50 [3]: 26 nM
IC50 [2]: 1.1 nM

SMILES: Cn1cc(/C=C2/Oc3cc(O)cc(O)c3C2=O)c2c(-c3ccccc3)cccc21 [Compound 557, (2E)-4,6-dihydroxy-2-[(1-methyl-4-phenyl-1H-indol-3-yl)methylene]-1-benzofuran-3(2H)-one]
IC50 [3]: > 10000 nM
IC50 [2]: 1200 nM

Second part, the compound after the results:

IC50 [1]: 380 nM
IC50 [2]: 1030 nM
SMILES: COc1ccc(-c2c(C=C3Oc4cc(O)cc(O)c4C3=O)c3ccccc3n2C)cc1 [Example 195, 4,6-dihydroxy-2-{[2-(4-methoxyphenyl)-1-methyl-1H-indol-3-yl]methylene}-1-benzofuran-3(2H)-one]

IC50 [1]: 19000 nM
IC50 [2]: 936 nM
SMILES: O=C1C(=Cc2c[nH]c3cc(Cl)ccc23)Oc2cc(O)cc(O)c21 [Example 172, 2-[(6-chloro-1H-indol-3-yl)methylene]-4,6-dihydroxy-1-benzofuran-3(2H)-one]

IC50 [1]: 6100 nM
IC50 [2]: 1200 nM
SMILES: O=C(Nc1ccc2[nH]cc(C=C3Oc4cc(O)cc(O)c4C3=O)c2c1)c1ccco1 [Example 183, N-{3-[(4,6-dihydroxy-3-oxo-1-benzofuran-2(3H)-ylidene)methyl]-1H-indol-5-yl}-2-furamide]

IC50 [1]: 1400 nM
IC50 [2]: 1560 nM
SMILES: Cn1c(-c2ccc(F)c(Cl)c2)c(C=C2Oc3cc(O)cc(O)c3C2=O)c2ccccc21 [Example 199, 2-{[2-(3-chloro-4-fluorophenyl)-1-methyl-1H-indol-3-yl]methylene}-4,6-dihydroxy-1-benzofuran-3(2H)-one]

IC50 [1]: 2700 nM
IC50 [2]: 3330 nM
SMILES: Cc1c(C=C2Oc3cc(O)cc(O)c3C2=O)c2ccccc2n1CCCC#N [Example 240, 4-{3-[(4,6-dihydroxy-3-oxo-1-benzofuran-2(3H)-ylidene)methyl]-2-methyl-1H-indol-1-yl}butanenitrile]

IC50 [1]: 3300 nM
IC50 [2]: 1430 nM
SMILES: Cn1cc(C=C2Oc3cc(O)cc(O)c3C2=O)c2c(Br)cccc21 [Example 253, 2-[(4-bromo-1-methyl-1H-indol-3-yl)methylene]-4,6-dihydroxy-1-benzofuran-3(2H)-one]

IC50 [1]: 2100 nM
IC50 [2]: 4460 nM
SMILES: COC(=O)c1cccc2[nH]cc(C=C3Oc4cc(O)cc(O)c4C3=O)c12 [Example 222, methyl 3-[(4,6-dihydroxy-3-oxo-1-benzofuran-2(3H)-ylidene)methyl]-1H-indole-4-carboxylate]

IC50 [1]: 2850 nM
IC50 [2]: 2400 nM
SMILES: O=C1C(=Cc2c(-c3ccccc3)[nH]c3ccccc23)Oc2cc(O)ccc21 [Example 6, 6-hydroxy-2-[(2-phenyl-1H-indol-3-yl)methylene]-1-benzofuran-3(2H)-one]

IC50 [1]: > 20000 nM
IC50 [2]: 2390 nM
SMILES: COc1cccc2c(C=C3Oc4cc(O)cc(O)c4C3=O)cn(C)c12 [Example 251, 4,6-dihydroxy-2-[(7-methoxy-1-methyl-1H-indol-3-yl)methylene]-1-benzofuran-3(2H)-one]

IC50 [1]: > 20000 nM
IC50 [2]: > 10000 nM
SMILES: O=C1C(=Cc2c[nH]c3ccccc23)Oc2cc(O)ccc21 [Example 5, 6-hydroxy-2-(1H-indol-3-ylmethylene)-1-benzofuran-3(2H)-one]

IC50 [1]: 1500 nM
IC50 [2]: 555 nM
SMILES: Cn1cc(C=C2Oc3cc(O)cc(O)c3C2=O)c2c(Cl)cccc21 [Example 252, 2-[(4-chloro-1-methyl-1H-indol-3-yl)methylene]-4,6-dihydroxy-1-benzofuran-3(2H)-one]

IC50 [3]: 2480 nM
IC50 [2]: 235 nM
SMILES: COc1ccc2c(c1)c(C=C1Oc3cccc(O)c3C1=O)c(C)n2CCCCN1CCOCC1 [Example 136, 4-hydroxy-2-{[5-methoxy-2-methyl-1-(4-morpholin-4-ylbutyl)-1H-indol-3-yl]methylene}-1-benzofuran-3(2H)-one]

IC50 [3]: 1750 nM
IC50 [2]: 502 nM
SMILES: COc1cc2[nH]cc(C=C3Oc4cc(O)cc(O)c4C3=O)c2cc1OC [Example 181, 2-[(5,6-dimethoxy-1H-indol-3-yl)methylene]-4,6-dihydroxy-1-benzofuran-3(2H)-one]
